Among the data in patent publication US12077531B2, “Imidazopyridinone compound” (KISSEI PHARMACEUTICAL CO., LTD., priority 2018, dated 2024) are IC50 and inhibition values, retold here.

Where a name gives a salt, the structure may show the parent alone.

The target in this test is human PHD2184-418 (Homo sapiens (Human), UniProt Q9GZT9). Nature of the test: PHD2 inhibitory test (fluorescence polarization, binding between PHD2 and HIF-1α). Particulars: for IC50: human PHD2184-418, FITC-labeled HIF-1α556-574, 2 μM 2-oxoglutarate, 37° C. 60 minutes. How it is done: Test Example 1 PHD2 Inhibitory Test
Sequence of human PHD2184-418 (Q9GZT9 184-418): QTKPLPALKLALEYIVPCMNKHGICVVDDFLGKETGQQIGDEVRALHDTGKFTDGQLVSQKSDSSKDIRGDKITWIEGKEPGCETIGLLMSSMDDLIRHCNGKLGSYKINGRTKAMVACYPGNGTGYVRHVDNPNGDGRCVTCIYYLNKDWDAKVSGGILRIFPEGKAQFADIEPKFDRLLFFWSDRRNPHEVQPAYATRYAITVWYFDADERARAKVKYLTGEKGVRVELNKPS
(1) Expression and Preparation of Human PHD2184-418
Human PHD2184-418 containing amino acid residues 184 to 418 of the protein represented by CAC42509 (GenBank accession ID) was expressed and prepared by the following method.
An expression construct of human PHD2184-418 containing N-terminal histidine tag was introduced into pET-30a (+) vector, and the sequence was confirmed. This vector was introduced into BL21 (DE3) strain and cultured at 37° C. in LB medium containing antibiotics. After culturing, a cell lysis solution was added to the cells, and then the cells were disrupted by sonication. The disrupted suspension was centrifuged and the supernatant was purified by Ni column to give human PHD2184-418.
Human HIF-1α556-574 (FITC-labeled HIF-1α556-574), containing N-terminal FITC-Ahx, containing amino acid residues 556 to 574 (partial peptide) of HIF-1α was used as a substrate. Using FITC-labeled HIF-1α556-574, the competitive inhibition between 2-oxoglutarate and test compounds (PHD inhibitor) was evaluated based on the change in fluorescence polarization by the following method.
An enzyme (human PHD2184-418) and the substrate were diluted with an assay buffer (pH 7.4) containing 10 mM HEPES, 150 mM NaCl, 10 μM MnCl2-4H2O, 2 μM 2-oxoglutarate and 0.05% Tween-20. Test compounds were diluted with DMSO. Test compounds and human PHD2184-418 was added to the 384-well plate (Corning, black, opaque bottom) in advance. The reaction was started by the addition of FITC-labeled HIF-1α556-574. After incubating at 37° C. for 60 minutes, fluorescence polarization (excitation wavelength: 470 nm, fluorescence wavelength: 530 nm) was measured by PHERAstar FSX (BMG Labtech). Fluorescence polarization of each well was measured, and human PHD2 binding inhibitory activity of test compounds was calculated based on the value of test compound-free group.

A word on the IC50: it is the concentration that inhibits the measured activity by half. The low end stands for greater potency in that assay, the high end for weaker potency in that assay. Molecule `Cn1c(C(=O)O)cnc1CN1CC[C@H](n2c(=O)n(-c3ccc(-c4ccc(C(=O)O)cc4)cc3)c3cc(C(F)(F)F)cnc32)C1` [Example 26, (S)-2-((3-(1-(4′-Carboxy-[1,1′-biphenyl]-4-yl)-2-oxo-6-(trifluoromethyl)-1,2-dihydro-3H-imidazo[4,5-b]pyridin-3-yl)pyrrolidin-1-yl)methyl)-1-methyl-1H-imidazole-5-carboxylic acid] gave an IC50 of 130 nM. Turning to `Cc1cnc2c(c1)n(-c1ccc(-c3ccc(C(=O)O)cc3)cc1)c(=O)n2[C@H]1CCN(Cc2ncc(C(=O)O)n2C)C1` [Example 27, (S)-2-((3-(1-(4′-Carboxy-[1,1′-biphenyl]-4-yl)-6-methyl-2-oxo-1,2-dihydro-3H-imidazo[4,5-b]pyridin-3-yl)pyrrolidin-1-yl)methyl)-1-methyl-1H-imidazole-5-carboxylic acid], the IC50 was 110 nM. For the molecule `Cc1cc(-c2ccccc2)ccc1-n1c(=O)n([C@H]2CCN(Cc3nccn3C)C2)c2ncccc21` [Example 28, (S)-3-(1-((1-Methyl-1H-imidazol-2-yl)methyl)pyrrolidin-3-yl)-1-(3-methyl-[1,1′-biphenyl]-4-yl)-1,3-dihydro-2H-imidazo[4,5-b]pyridin-2-one], the 50% inhibitory concentration (IC50) turned out to be 28200 nM. `Cc1ccccc1-c1ccc(-n2c(=O)n([C@H]3CCN(Cc4nccn4C)C3)c3ncccc32)cc1` [Example 29, (S)-3-(1-((1-Methyl-1H-imidazol-2-yl)methyl)pyrrolidin-3-yl)-1-(2′-methyl-[1,1′-biphenyl]-4-yl)-1,3-dihydro-2H-imidazo[4,5-b]pyridin-2-one] gave an IC50 of 2090 nM.

In turn, `Cc1cc(-c2ccccc2)ccc1-n1c(=O)n([C@@H]2CCN(Cc3nccn3C)C2)c2ncccc21` [Example 30, (R)-3-(1-((1-Methyl-1H-imidazol-2-yl)methyl)pyrrolidin-3-yl)-1-(3-methyl-[1,1′-biphenyl]-4-yl)-1,3-dihydro-2H-imidazo[4,5-b]pyridin-2-one] showed a half-inhibitory concentration (IC50) of 3480 nM. `Cc1cccnc1CN1CC[C@H](n2c(=O)n(-c3ccc(-c4ccc(F)cc4)cc3)c3cccnc32)C1` [Example 31, (S)-1-(4′-Fluoro-[1,1′-biphenyl]-4-yl)-3-(1-((3-methylpyridin-2-yl)methyl)pyrrolidin-3-yl)-1,3-dihydro-2H-imidazo[4,5-b]pyridin-2-one] registered an IC50 of 12400 nM.

As for `Cc1cccnc1CN1CC[C@H](n2c(=O)n(-c3ccc(-c4ccccc4C(F)(F)F)cc3)c3cccnc32)C1` [Example 33, (S)-3-(1-((3-Methylpyridin-2-yl)methyl)pyrrolidin-3-yl)-1-(2′-(trifluoromethyl)-[1,1′-biphenyl]-4-yl)-1,3-dihydro-2H-imidazo[4,5-b]pyridin-2-one], for the setting “read-out: inhibition rate at the compound concentration of 100 μM (numerals with *), compound concentration 100 μM”, the inhibition at 100 µM turned out to be 41%.

As for `Cc1cccnc1CN1CC[C@H](n2c(=O)n(-c3ccc(-c4ccc(C#N)cc4)cc3)c3cccnc32)C1` [Example 34, (S)-4′-(3-(1-((3-Methylpyridin-2-yl)methyl)pyrrolidin-3-yl)-2-oxo-2,3-dihydro-1H-imidazo[4,5-b]pyridin-1-yl)-[1,1′-biphenyl]-4-carbonitrile], the IC50 is 5700 nM. `Cc1cccnc1CN1CC[C@H](n2c(=O)n(-c3ccc(-c4ccc(OC(F)(F)F)cc4)cc3)c3cccnc32)C1` [Example 35, (S)-3-(1-((3-Methylpyridin-2-yl)methyl)pyrrolidin-3-yl)-1-(4′-(trifluoromethoxy)-[1,1′-biphenyl]-4-yl)-1,3-dihydro-2H-imidazo[4,5-b]pyridin-2-one] had an IC50 of 80500 nM. The same measure, in the same setting: for `Cn1ccnc1CN1CC[C@H](n2c(=O)n(-c3ccc(-c4ccncc4)cc3)c3cccnc32)C1` [Example 36, (S)-3-(1-((1-Methyl-1H-imidazol-2-yl)methyl)pyrrolidin-3-yl)-1-(4-(pyridin-4-yl)phenyl)-1,3-dihydro-2H-imidazo[4,5-b]pyridin-2-one hydrochloride] the value was 1510 nM; for `COC(=O)c1ccc(-c2ccc(-n3c(=O)n([C@H]4CCN(Cc5nccn5C)C4)c4ncccc43)cc2)cc1` [Example 37, Methyl (S)-4′-(3-(1-((1-methyl-1H-imidazol-2-yl)methyl)pyrrolidin-3-yl)-2-oxo-2,3-dihydro-1H-imidazo[4,5-b]pyridin-1-yl)-[1,1′-biphenyl]-4-carboxylate], 6280 nM. In turn, `COC(=O)c1ccc(-c2ccc(-n3c(=O)n([C@@H]4CCN(Cc5nccn5C)C4)c4ncccc43)c(C)c2)cc1` [Example 38, Methyl (R)-3′-methyl-4′-(3-(1-((1-methyl-1H-imidazol-2-yl)methyl)pyrrolidin-3-yl)-2-oxo-2,3-dihydro-1H-imidazo[4,5-b]pyridin-1-yl)-[1,1′-biphenyl]-4-carboxylate] displayed an IC50 of 4630 nM. Molecule `Cn1ccnc1CN1CC[C@H](n2c(=O)n(-c3ccc(-c4ccc(O)c(C(=O)O)c4)cc3)c3cccnc32)C1` [Example 42, (S)-4-Hydroxy-4′-(3-(1-((1-methyl-1H-imidazol-2-yl)methyl)pyrrolidin-3-yl)-2-oxo-2,3-dihydro-1H-imidazo[4,5-b]pyridin-1-yl)-[1,1′-biphenyl]-3-carboxylic acid] registered an IC50 of 320 nM. Take `Cn1ccnc1CN1CC[C@H](n2c(=O)n(-c3ccc(-c4ccc(C(=O)O)cc4O)cc3)c3cccnc32)C1` [Example 44, (S)-2-Hydroxy-4′-(3-(1-((1-methyl-1H-imidazol-2-yl)methyl)pyrrolidin-3-yl)-2-oxo-2,3-dihydro-1H-imidazo[4,5-b]pyridin-1-yl)-[1,1′-biphenyl]-4-carboxylic acid]: the IC50 was 970 nM. `Cc1cc(-c2ccc(C(=O)O)cc2)ccc1-n1c(=O)n([C@@H]2CCN(Cc3nccn3C)C2)c2ncccc21` [Example 48, (R)-3′-Methyl-4′-(3-(1-((1-methyl-1H-imidazol-2-yl)methyl)pyrrolidin-3-yl)-2-oxo-2,3-dihydro-1H-imidazo[4,5-b]pyridin-1-yl)-[1,1′-biphenyl]-4-carboxylic acid] yielded an IC50 of 350 nM. Molecule `Cc1cc(C(=O)O)ccc1-c1ccc(-n2c(=O)n([C@H]3CCN(Cc4ncc(C(=O)O)n4C)C3)c3ncccc32)cn1` [Example 50, (S)-2-((3-(1-(6-(4-Carboxy-2-methylphenyl)pyridin-3-yl)-2-oxo-1,2-dihydro-3H-imidazo[4,5-b]pyridin-3-yl)pyrrolidin-1-yl)methyl)-1-methyl-1H-imidazole-5-carboxylic acid] returned an IC50 of 140 nM.

With `O=C(O)c1ccnc(CN2CC[C@H](n3c(=O)n(-c4ccc(-c5ccc(O)c(C(=O)O)c5)c(O)c4)c4cccnc43)C2)c1` [Example 51, (S)-2-((3-(1-(3′-Carboxy-2,4′-dihydroxy-[1,1′-biphenyl]-4-yl)-2-oxo-1,2-dihydro-3H-imidazo[4,5-b]pyridin-3-yl)pyrrolidin-1-yl)methyl)isonicotinic acid], the IC50 worked out at 140 nM. Same read-out and setting: then `O=C(O)c1ccnc(CN2CC[C@H](n3c(=O)n(-c4ccc(-c5ccc(O)c(C(=O)O)c5)nc4)c4cccnc43)C2)c1` [Example 52, (S)-2-((3-(1-(6-(3-Carboxy-4-hydroxyphenyl)pyridin-3-yl)-2-oxo-1,2-dihydro-3H-imidazo[4,5-b]pyridin-3-yl)pyrrolidin-1-yl)methyl)isonicotinic acid], with 280 nM.
